Results published in patent US11014911B2, “CDK2 inhibitors” (Pfizer Inc., priority 2019, dated 2021).

Target: CDK2/Cyclin E1 full length (Homo sapiens (Human), UniProt P24941)
Experiment: CDK2/Cyclin E1 full length mobility shift assay
Format: biochemical

| SMILES | Ki [nM] |
| --- | --- |
| O=C(Cc1ccno1)Nc1cc([C@H]2CC[C@@H](OC(=O)NCC(F)F)C2)[nH]n1 [Example 246, (1R,3S)-3-{3-[(1,2-oxazol-5-ylacetyl)amino]-1H-pyrazol-5-yl}cyclopentyl (2,2-difluoroethyl)carbamate] | 3.29 |
| COc1nn(C)cc1CC(=O)Nc1cc([C@H]2CC[C@@H](OC(=O)NC(C)(C)C)C2)[nH]n1 [Example 309, (1R,3S)-3-(3-{[(3-methoxy-1-methyl-1H-pyrazol-4-yl)acetyl]amino}-1H-pyrazol-5-yl)cyclopentyl tert-butylcarbamate] | 1.55 |
| Cn1ccc(CC(=O)Nc2cc([C@H]3CC[C@@H](OC(=O)NC4(C)CCOCC4)C3)[nH]n2)n1 [Example 507, (1R,3S)-3-(3-{[(1-methyl-1H-pyrazol-3-yl)acetyl]amino}-1H-pyrazol-5-yl)cyclopentyl (4-methyltetrahydro-2H-pyran-4-yl)carbamate] | 3.69 |
| O=C(Cc1cc(F)cc(F)c1)Nc1cc([C@@H]2CC[C@H](OC(=O)NCC3CCOCC3)C2)[nH]n1 [Example 513, (1S,3R)-3-(3-{[(3,5-difluorophenyl)acetyl]amino}-1H-pyrazol-5-yl)cyclopentyl (tetrahydro-2H-pyran-4-ylmethyl)carbamate] | 3.19 |
| Cc1nnc(CC(=O)Nc2cc([C@H]3CC[C@@H](OC(=O)NC4(C)CCC4)C3)[nH]n2)s1 [Example 18, (1R,3S)-3-(3-{[(5-methyl-1,3,4-thiadiazol-2-yl)acetyl]amino}-1H-pyrazol-5-yl)cyclopentyl (1-methylcyclobutyl)carbamate] | 0.17 |
| COc1ccc(CC(=O)Nc2cc([C@H]3CC[C@@H](OC(=O)N4C[C@@H](C#N)[C@@H]4C)C3)[nH]n2)cn1 (single isomer, unassigned) [Example 157] | 1.86 |
| C[C@H]1CCC[C@H]1NC(=O)O[C@@H]1CC[C@H](c2cc(NC(=O)Cc3ccno3)n[nH]2)C1 [Example 461, (1R,3S)-3-{3-[(1,2-oxazol-5-ylacetyl)amino]-1H-pyrazol-5-yl}cyclopentyl [(1R,2S)-2-methylcyclopentyl]carbamate] | 1.75 |
| C[C@@H](NC(=O)O[C@@H]1CC[C@H](c2cc(NC(=O)Cc3ccon3)n[nH]2)C1)C1CC1 [Example 467, (1R,3S)-3-{3-[(1,2-oxazol-3-ylacetyl)amino]-1H-pyrazol-5-yl}cyclopentyl [(1R)-1-cyclopropylethyl]carbamate] | 1.2 |
| COCc1cc(C(=O)Nc2cc([C@H]3CC[C@@H](OC(=O)N4CC[C@@H]4C)C3)[nH]n2)n(C)n1 [Example 595, (1R,3S)-3-[3-({[3-(methoxymethyl)-1-methyl-1H-pyrazol-5-yl]carbonyl}amino)-1H-pyrazol-5-yl]cyclopentyl (2S)-2-methylazetidine-1-carboxylate] | 1.52 |
| CCCNC(=O)O[C@H]1CC[C@@H](c2cc(NC(=O)Cc3cn4ccccc4n3)n[nH]2)C1 [Example 191, (1S,3R)-3-{3-[(imidazo[1,2-a]pyridin-2-ylacetyl)amino]-1H-pyrazol-5-yl}cyclopentyl propylcarbamate] | 3.33 |
| COc1cnc(CC(=O)Nc2cc([C@H]3CC[C@@H](OC(=O)N4CC[C@@H]4C)C3)[nH]n2)cn1 [Example 592, (1R,3S)-3-(3-{[(5-methoxypyrazin-2-yl)acetyl]amino}-1H-pyrazol-5-yl)cyclopentyl (2S)-2-methylazetidine-1-carboxylate] | 2.27 |
| CC(C)(C)NC(=O)O[C@@H]1CC[C@H](c2cc(NC(=O)Cc3ccc(Cl)cn3)n[nH]2)C1 [Example 310, (1R,3S)-3-(3-{[(5-chloropyridin-2-yl)acetyl]amino}-1H-pyrazol-5-yl)cyclopentyl tert-butylcarbamate] | 0.69 |
| COc1cnc(CC(=O)Nc2cc([C@H]3CC[C@@H](OC(=O)N[C@H](C)C4CC4)C3)[nH]n2)cn1 [Example 472, (1R,3S)-3-(3-{[(5-methoxypyrazin-2-yl)acetyl]amino}-1H-pyrazol-5-yl)cyclopentyl [(1R)-1-cyclopropylethyl]carbamate] | 1.17 |
| C[C@@H]1CCN1C(=O)O[C@@H]1CC[C@H](c2cc(NC(=O)Cc3cnn(C)c3)n[nH]2)C1 [Example 587, (1R,3S)-3-(3-{[(1-methyl-1H-pyrazol-4-yl)acetyl]amino}-1H-pyrazol-5-yl)cyclopentyl (2R)-2-methylazetidine-1-carboxylate] | 2.77 |
| CC(C)NC(=O)O[C@@H]1CC[C@H](c2cc(NC(=O)Cc3ccccn3)n[nH]2)C1 [Example 265, (1R,3S)-3-{3-[(pyridin-2-ylacetyl)amino]-1H-pyrazol-5-yl}cyclopentyl propan-2-ylcarbamate] | 1.91 |
| COc1ccc(CC(=O)Nc2cc([C@H]3CC[C@@H](OC(=O)N[C@H]4CC[C@](C)(O)CC4)C3)[nH]n2)cc1 [Example 567, (1R,3S)-3-(3-{[(4-methoxyphenyl)acetyl]amino}-1H-pyrazol-5-yl)cyclopentyl (trans-4-hydroxy-4-methylcyclohexyl)carbamate] | 1.61 |
| CCCNC(=O)O[C@@H]1CC[C@H](c2cc(NC(=O)Cc3cc(C)ncc3S(C)(=O)=O)n[nH]2)C1 [Example 208, (1R,3S)-3-[3-({[2-methyl-5-(methylsulfonyl)pyridin-4-yl]acetyl}amino)-1H-pyrazol-5-yl]cyclopentyl propylcarbamate] | 3.18 |

| SMILES | Ki [nM] |
| --- | --- |
| Cc1coc(CC(=O)Nc2cc([C@H]3CC[C@@H](OC(=O)N4CCC[C@@H]4C)C3)[nH]n2)n1 [Example 636, (1R,3S)-3-(3-{[(4-methyl-1,3-oxazol-2-yl)acetyl]amino}-1H-pyrazol-5-yl)cyclopentyl (2S)-2-methylpyrrolidine-1-carboxylate] | 0.83 |
| Cc1csc(CC(=O)Nc2cc([C@H]3CC[C@@H](OC(=O)N4CCC[C@@H]4C)C3)[nH]n2)n1 [Example 637, (1R,3S)-3-(3-{[(4-methyl-1,3-thiazol-2-yl)acetyl]amino}-1H-pyrazol-5-yl)cyclopentyl (2S)-2-methylpyrrolidine-1-carboxylate] | 1.47 |
| COc1ccc(CC(=O)Nc2cc([C@H]3CC[C@@H](OC(=O)N4C[C@@H](O)[C@@H]4C)C3)[nH]n2)cn1 [Example 615, (1R,3S)-3-(3-{[(6-methoxypyridin-3-yl)acetyl]amino}-1H-pyrazol-5-yl)cyclopentyl (2S,3R)-3-hydroxy-2-methylazetidine-1-carboxylate] | 1.99 |
| CCCN(CCC)C(=O)O[C@@H]1CC[C@H](c2cc(NC(=O)Cc3ccno3)n[nH]2)C1 [Example 225, (1R,3S)-3-{3-[(1,2-oxazol-5-ylacetyl)amino]-1H-pyrazol-5-yl}cyclopentyl dipropylcarbamate] | 2.67 |
| Cc1ncc(CC(=O)Nc2cc([C@H]3CC[C@@H](OC(=O)NC(C)C(C)(F)F)C3)[nH]n2)s1 (single isomer, unassigned) [Example 390] | 3.74 |
| Cc1cc(Cl)cnc1CC(=O)Nc1cc([C@H]2CC[C@@H](OC(=O)NC3(C)CC3)C2)[nH]n1 [Example 439, (1R,3S)-3-(3-{[(5-chloro-3-methylpyridin-2-yl)acetyl]amino}-1H-pyrazol-5-yl)cyclopentyl (1-methylcyclopropyl)carbamate] | 2.37 |
| CC(C)(C)NC(=O)O[C@@H]1CC[C@H](c2cc(NC(=O)Cc3ncccc3F)n[nH]2)C1 [Example 301, (1R,3S)-3-(3-{[(3-fluoropyridin-2-yl)acetyl]amino}-1H-pyrazol-5-yl)cyclopentyl tert-butylcarbamate] | 0.55 |
| COc1cnc(CC(=O)Nc2cc([C@H]3CC[C@@H](OC(=O)NC(C)C)C3)[nH]n2)s1 [Example 280, (1R,3S)-3-(3-{[(5-methoxy-1,3-thiazol-2-yl)acetyl]amino}-1H-pyrazol-5-yl)cyclopentyl propan-2-ylcarbamate] | 2.12 |
| C[C@H]1CCN1C(=O)O[C@@H]1CC[C@H](c2cc(NC(=O)c3ccnn3CCN(C)C)n[nH]2)C1 [Example 596, (1R,3S)-3-{3-[({1-[2-(dimethylamino)ethyl]-1H-pyrazol-5-yl}carbonyl)amino]-1H-pyrazol-5-yl}cyclopentyl (2S)-2-methylazetidine-1-carboxylate] | 1.75 |
| COc1cnc(CC(=O)Nc2cc([C@H]3CC[C@@H](OC(=O)NCCC(F)(F)F)C3)[nH]n2)cn1 [Example 222, (1R,3S)-3-(3-{[(5-methoxypyrazin-2-yl)acetyl]amino}-1H-pyrazol-5-yl)cyclopentyl (3,3,3-trifluoropropyl)carbamate] | 2.93 |
| Cc1ncc(CC(=O)Nc2cc([C@H]3CC[C@@H](OC(=O)N[C@@H]4CCC[C@@H]4C)C3)[nH]n2)o1 [Example 462, (1R,3S)-3-(3-{[(2-methyl-1,3-oxazol-5-yl)acetyl]amino}-1H-pyrazol-5-yl)cyclopentyl [(1R,2S)-2-methylcyclopentyl]carbamate] | 1.74 |
| Cc1cc(CC(=O)Nc2cc([C@H]3CC[C@@H](OC(=O)NC4(CC(F)(F)F)CC4)C3)[nH]n2)on1 [Example 453, (1R,3S)-3-(3-{[(3-methyl-1,2-oxazol-5-yl)acetyl]amino}-1H-pyrazol-5-yl)cyclopentyl [1-(2,2,2-trifluoroethyl)cyclopropyl]carbamate] | 0.29 |
| CCC(O)CNC(=O)O[C@@H]1CC[C@H](c2cc(NC(=O)Cc3ccc(OC)cc3)n[nH]2)C1 (single isomer, unassigned) [Example 541] | 1.85 |
| Cc1ncc(CC(=O)Nc2cc([C@H]3CC[C@@H](OC(=O)NCC(F)F)C3)[nH]n2)s1 [Example 249, (1R,3S)-3-(3-{[(2-methyl-1,3-thiazol-5-yl)acetyl]amino}-1H-pyrazol-5-yl)cyclopentyl (2,2-difluoroethyl)carbamate] | 2.32 |
| Cc1ccnc(CC(=O)Nc2cc([C@H]3CC[C@@H](OC(=O)NC(C)(C)C)C3)[nH]n2)c1Cl [Example 313, (1R,3S)-3-(3-{[(3-chloro-4-methylpyridin-2-yl)acetyl]amino}-1H-pyrazol-5-yl)cyclopentyl tert-butylcarbamate] | 0.63 |
| CC(C)NC(=O)O[C@@H]1CC[C@H](c2cc(NC(=O)Cc3cnc(C(F)(F)F)cn3)n[nH]2)C1 [Example 287, (1R,3S)-3-[3-({[5-(trifluoromethyl)pyrazin-2-yl]acetyl}amino)-1H-pyrazol-5-yl]cyclopentyl propan-2-ylcarbamate] | 2.26 |
